Patent US5157052A, “Method for inhibiting IgE production” (priority 1990, dated 1992)

Assays:
Assay type in all cases: in vivo, mouse (Balb/c female)
MHC Class II = experiment: Splenocyte cell surface density/distribution (FACS): MHC Class II
Procedure: (§1) One group of 4 unstimulated Balb/c female mice is injected with PBS (Group A). Another (Group B) is injected with 20 μg (±) methyl 11α,16-dihydroxy-16-methyl-9-oxoprosta-5Z,13E-dien-1-oate as in Example 13. […] A 3 cm incision is made with a scalpel above the left hip, and the spleen is cut free from adjoining tissue and placed in a 100 mn plastic culture dish containing 10 ml PBS. The splenic cells are then made into a suspension, by rubbing the spleens between the rough, frosted ends of microscope slides repeatedly until the only remaining particulate matter is connective tissue. Cells are transferred to a 15 ml conical polystyrene tube and centrifuged in a centrifuge at 1200 rpm for 5 minutes. The supernatant is discarded by aspiration and the cell pellet is resuspended in 10 ml PBS, then centrifuged at 1200 rpm for 5 minutes. The supernatant is aspirated and the cell pellet is resuspended in 15 mM Tris, 140 mM Ammonium Chloride, to lyse red blood cells. After incubating at room temperature for 10 minutes the cell suspension is centrifuged at 1200 rpm for 10 minutes. The supernatant is discarded and the cell pellet is resuspended in 10 ml FACS Buffer (PBS containing 0.1% BSA and 0.1% Sodium Azide). The cell suspension is filtered through sterile glass wool plugged in the top of a pasteur pipet. Cells in the flow through are counted using a hemacytometer, then the cell suspension is centrifuged at 1200 rpm for 5 minutes. The supernatant is discarded and the cell pellet is resuspended in a volume of FACS Buffer that will yield 4×10^7 cells/ml. 10 μl (4×10^5 cells) is added to each well of a 96-well V-bottom plate. 25 μl of diluted monoclonal antibody directed against splenocyte cell surface proteins is added to each well: Major Histocompatability Complex (MHC) Class II (M5114, ATCC, Rockville Md.), MHC Class I (M1/42, ATCC), Anti-IgD (JA12.5, ATCC, Rockville, Md.), Thymocyte (Thy)-1 (JIJ, ATCC), B220 (14.8, ATCC), Kappa light chain (187, ATCC), IL-2 Receptor (7D4, ATCC), Lyt-1 (7.313, ATCC) and CD23 (biotinylated B3B4) and incubated on ice for 30 minutes. 100 μl 10% BSA 0.1% sodium azide is added to each well, then the plates are centrifuged at 1200 rpm for 10 minutes. The liquid is removed by aspiration and the cell pellets are resuspended in 100 μl FACS Buffer, and centrifuged at 1200 rpm for 5 minutes. […] Samples are transferred to individual tubes and 10,000 cells are analyzed. Using the Lysis software (Becton Dickinson, Mountain View, Calif.) the mean channel log fluorescence and percent positive cells are determined for the entire cell population. […]

κ Light Chain = experiment: Splenocyte cell surface density/distribution (FACS): κ Light Chain
Procedure: as §1

IgG1 = experiment: Serum IgG1 in anti-IgD stimulated mice (two site sandwich ELISA, Assay B)
CD23 = experiment: Splenocyte cell surface density/distribution (FACS): CD23
Procedure: as §1

MHC Class I = experiment: Splenocyte cell surface density/distribution (FACS): MHC Class I
Procedure: as §1

B220 = experiment: Splenocyte cell surface density/distribution (FACS): B220
IgD = experiment: Splenocyte cell surface density/distribution (FACS): IgD
Procedure: as §1

[1] = anti-IgD stimulated mice, 20 μg days 3 and 4, day 7 (PBS 107)

## CCCCC(C)(O)C/C=C/[C@H]1[C@H](O)CC(=O)[C@@H]1C/C=C\CCCC(=O)OC (mixture of isomers) [(±) methyl 11α,16-dihydroxy-16-methyl-9-oxoprosta-5Z,13E-dien-1-oate]
MHC Class II; anti-IgD stimulated mice, 20 μg days 3 and 4, day 7 (PBS 59.8)
  Percentage Positive Cells: 68.6 ± 5.1%
MHC Class II; anti-IgD stimulated mice, 20 μg days 3 and 4, day 7 (PBS 134)
  Mean Channel Log Fluorescence: 137 ± 15
MHC Class II; unstimulated mice, 20 μg (PBS 56.2)
  Percentage Positive Cells: 56.9 ± .4%
MHC Class II; unstimulated mice, 20 μg (PBS 148)
  Mean Channel Log Fluorescence: 149 ± 8
κ Light Chain; anti-IgD stimulated mice, 20 μg days 3 and 4, day 7 (PBS 50)
  Percentage Positive Cells: 58 ± 14.6%
κ Light Chain; anti-IgD stimulated mice, 20 μg days 3 and 4, day 7 (PBS 118)
  Mean Channel Log Fluorescence: 119 ± 7
κ Light Chain; unstimulated mice, 20 μg (PBS 52.1)
  Percentage Positive Cells: 53.9 ± 2.1%
κ Light Chain; unstimulated mice, 20 μg (PBS 135)
  Mean Channel Log Fluorescence: 131 ± 4
IgG1; 2 μg IP days 3 and 4, day 7 (control 4808)
  IgG1 ± SD: 3220 ± 985 µg/mL
IgG1; 2 μg IP days 3 and 4, day 8 (control 13818)
  IgG1 ± SD: 12947 ± 2195 µg/mL
IgG1; 2 μg IP days 3 and 4, day 9 (control 17700)
  IgG1 ± SD: 19938 ± 3279 µg/mL
IgG1; 2 μg IP days 3 and 4, day 11 (control 17100)
  IgG1 ± SD: 17589 ± 1923 µg/mL
IgG1; 2 μg IP days 3 and 4, day -1 baseline before treatment
  IgG1 ± SD: 215 ± 124 µg/mL
IgG1; 5 μg IP days 3 and 4, day 7
  IgG1 ± SD: 6902 ± 3604 µg/mL
IgG1; 5 μg IP days 3 and 4, day 8
  IgG1 ± SD: 18202 ± 5327 µg/mL
IgG1; 5 μg IP days 3 and 4, day 9
  IgG1 ± SD: 27069 ± 3257 µg/mL
IgG1; 5 μg IP days 3 and 4, day 11
  IgG1 ± SD: 23205 ± 6506 µg/mL
IgG1; 5 μg IP days 3 and 4, day -1 baseline before treatment
  IgG1 ± SD: 248 ± 189 µg/mL
IgG1; 10 μg IP days 3 and 4, day 7
  IgG1 ± SD: 6952 ± 3410 µg/mL
IgG1; 10 μg IP days 3 and 4, day 8
  IgG1 ± SD: 17649 ± 3158 µg/mL
IgG1; 10 μg IP days 3 and 4, day 9
  IgG1 ± SD: 26978 ± 11752 µg/mL
IgG1; 10 μg IP days 3 and 4, day 11
  IgG1 ± SD: 26361 ± 6660 µg/mL
IgG1; 10 μg IP days 3 and 4, day -1 baseline before treatment
  IgG1 ± SD: 166 ± 14 µg/mL
IgG1; 20 μg IP days 3 and 4, day 7
  IgG1 ± SD: 6816 ± 3349 µg/mL
IgG1; 20 μg IP days 3 and 4, day 8
  IgG1 ± SD: 16838 ± 4174 µg/mL
IgG1; 20 μg IP days 3 and 4, day 9
  IgG1 ± SD: 23900 ± 11791 µg/mL
IgG1; 20 μg IP days 3 and 4, day 11
  IgG1 ± SD: 24998 ± 7169 µg/mL
IgG1; 20 μg IP days 3 and 4, day -1 baseline before treatment
  IgG1 ± SD: 255 ± 66 µg/mL
IgG1; 40 μg IP days 3 and 4, day 7
  IgG1 ± SD: 5168 ± 2391 µg/mL
IgG1; 40 μg IP days 3 and 4, day 9
  IgG1 ± SD: 24337 ± 4729 µg/mL
IgG1; 40 μg IP days 3 and 4, day 11
  IgG1 ± SD: 25930 ± 4376 µg/mL
CD23; anti-IgD stimulated mice, 20 μg days 3 and 4, day 7 (PBS 20.4)
  Percentage Positive Cells: 11.6 ± 1.6%
CD23; anti-IgD stimulated mice, 20 μg days 3 and 4, day 7 (PBS 99)
  Mean Channel Log Fluorescence: 95 ± 1.5
CD23; unstimulated mice, 20 μg (PBS 46.6)
  Percentage Positive Cells: 44.2 ± 6.6%
CD23; unstimulated mice, 20 μg (PBS 95)
  Mean Channel Log Fluorescence: 94 ± 3.2
MHC Class I; anti-IgD stimulated mice, 20 μg days 3 and 4, day 7 (PBS 48.5)
  Percentage Positive Cells: 59.4 ± 5.4%
MHC Class I; anti-IgD stimulated mice, 20 μg days 3 and 4, day 7 (PBS 113)
  Mean Channel Log Fluorescence: 121 ± 15
MHC Class I; unstimulated mice, 20 μg (PBS 57.8)
  Percentage Positive Cells: 79 ± 16%
MHC Class I; unstimulated mice, 20 μg (PBS 112)
  Mean Channel Log Fluorescence: 113 ± 2
B220; anti-IgD stimulated mice, 20 μg days 3 and 4, day 7 (PBS 49.3)
  Percentage Positive Cells: 61.2 ± .9%
B220; [1]
  Mean Channel Log Fluorescence: 112 ± 4
B220; unstimulated mice, 20 μg (PBS 49.6)
  Percentage Positive Cells: 50.6 ± 4.6%
B220; unstimulated mice, 20 μg (PBS 104)
  Mean Channel Log Fluorescence: 105 ± 2.5
IgD; anti-IgD stimulated mice, 20 μg days 3 and 4, day 7 (PBS 21.9)
  Percentage Positive Cells: 15.6 ± 8.4%
IgD; [1]
  Mean Channel Log Fluorescence: 98 ± 0.5
IgD; unstimulated mice, 20 μg (PBS 130)
  Mean Channel Log Fluorescence: 132 ± 3.5
IgD; unstimulated mice, 20 μg (PBS printed 1.4)
  Percentage Positive Cells: 51.8 ± 3.7%
